The values that follow come from article PMC6601628 (Science (New York, N.Y.), 2019).

Experiment [1] addresses eIF2B(βγδε)2 octamer (Homo sapiens, UniProt P49770+Q9UI10). In words: GEF activity, loading of fluorescent GDP onto eIF2. Type of experiment: biochemical. The settings on record: activator; stabilises assembly of two tetramers; substrate eIF2.
The target of experiment [2] is eIF2B(βγδε)2 octamer (Homo sapiens, UniProt P49770+Q9UI10, P49770:N132D). In words: GEF activity, loading of fluorescent GDP onto eIF2. Format: biochemical. The settings on record: activator; stabilises assembly of two tetramers; substrate eIF2.
eIF2B(βγδε)2 octamer (Homo sapiens, UniProt P49770+Q9UI10, P49770:N132D), sequence (P49770 whole entry N132D): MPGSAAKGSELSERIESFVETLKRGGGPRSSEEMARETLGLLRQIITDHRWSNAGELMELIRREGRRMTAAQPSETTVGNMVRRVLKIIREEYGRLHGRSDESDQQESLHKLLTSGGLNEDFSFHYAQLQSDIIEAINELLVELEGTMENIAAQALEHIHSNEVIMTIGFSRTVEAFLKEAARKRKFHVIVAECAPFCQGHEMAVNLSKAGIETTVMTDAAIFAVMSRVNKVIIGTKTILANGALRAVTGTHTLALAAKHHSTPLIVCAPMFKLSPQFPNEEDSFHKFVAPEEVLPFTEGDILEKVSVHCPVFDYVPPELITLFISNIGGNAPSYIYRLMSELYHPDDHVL
eIF2B(βγδε)2 octamer (Homo sapiens, UniProt P49770+Q9UI10, P49770:N132D), sequence (Q9UI10 whole entry): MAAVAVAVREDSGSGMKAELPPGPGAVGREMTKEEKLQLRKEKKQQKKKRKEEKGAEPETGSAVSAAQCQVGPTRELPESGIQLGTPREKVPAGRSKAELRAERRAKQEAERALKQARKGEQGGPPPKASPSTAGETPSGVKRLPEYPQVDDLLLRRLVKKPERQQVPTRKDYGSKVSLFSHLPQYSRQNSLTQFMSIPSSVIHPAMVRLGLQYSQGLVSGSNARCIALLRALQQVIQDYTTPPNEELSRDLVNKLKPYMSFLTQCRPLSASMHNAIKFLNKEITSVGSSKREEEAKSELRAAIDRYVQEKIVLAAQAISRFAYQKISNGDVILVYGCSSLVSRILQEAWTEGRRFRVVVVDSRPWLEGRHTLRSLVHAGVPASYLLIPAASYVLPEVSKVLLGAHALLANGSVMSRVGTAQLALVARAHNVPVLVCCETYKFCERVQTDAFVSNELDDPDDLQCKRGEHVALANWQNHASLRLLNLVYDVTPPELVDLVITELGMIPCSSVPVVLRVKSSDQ
eIF2B(βγδε)2 octamer (Homo sapiens, UniProt P49770+Q9UI10, P49770:N132D), sequence (Q9NR50 whole entry partner): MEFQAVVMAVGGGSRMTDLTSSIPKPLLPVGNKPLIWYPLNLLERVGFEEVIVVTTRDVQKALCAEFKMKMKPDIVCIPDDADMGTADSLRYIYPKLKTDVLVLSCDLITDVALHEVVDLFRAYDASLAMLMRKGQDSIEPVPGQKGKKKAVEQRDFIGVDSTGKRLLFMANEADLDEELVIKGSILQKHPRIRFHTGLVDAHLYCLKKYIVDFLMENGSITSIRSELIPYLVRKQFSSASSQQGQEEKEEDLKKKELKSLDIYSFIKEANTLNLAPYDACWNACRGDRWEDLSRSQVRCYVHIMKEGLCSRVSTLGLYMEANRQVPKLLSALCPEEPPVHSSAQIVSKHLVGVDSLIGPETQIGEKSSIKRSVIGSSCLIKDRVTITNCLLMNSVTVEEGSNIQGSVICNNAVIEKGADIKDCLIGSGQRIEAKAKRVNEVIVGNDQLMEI
eIF2B(βγδε)2 octamer (Homo sapiens, UniProt P49770+Q9UI10, P49770:N132D), sequence (Q13144 2-721 partner): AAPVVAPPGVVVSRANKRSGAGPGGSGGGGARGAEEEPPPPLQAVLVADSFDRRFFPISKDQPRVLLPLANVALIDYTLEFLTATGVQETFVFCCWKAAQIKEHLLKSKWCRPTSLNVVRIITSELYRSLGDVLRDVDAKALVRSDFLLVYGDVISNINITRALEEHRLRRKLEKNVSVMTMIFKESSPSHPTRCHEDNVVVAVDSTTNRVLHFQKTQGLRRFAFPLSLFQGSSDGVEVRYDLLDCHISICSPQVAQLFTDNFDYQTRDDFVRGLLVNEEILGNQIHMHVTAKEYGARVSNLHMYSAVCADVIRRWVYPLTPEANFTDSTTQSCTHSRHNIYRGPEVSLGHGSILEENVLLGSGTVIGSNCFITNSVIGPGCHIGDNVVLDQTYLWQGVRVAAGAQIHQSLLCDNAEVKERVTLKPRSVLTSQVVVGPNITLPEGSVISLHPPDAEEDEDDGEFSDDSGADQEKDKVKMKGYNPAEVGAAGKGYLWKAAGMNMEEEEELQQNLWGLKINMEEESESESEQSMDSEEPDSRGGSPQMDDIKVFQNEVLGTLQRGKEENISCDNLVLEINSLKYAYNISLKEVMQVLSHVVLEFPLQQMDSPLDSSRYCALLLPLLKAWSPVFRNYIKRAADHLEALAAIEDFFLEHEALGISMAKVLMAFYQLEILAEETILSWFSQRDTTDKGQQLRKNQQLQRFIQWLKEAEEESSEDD

eIF2B(βγδε)2 octamer (Homo sapiens, UniProt P49770+Q9UI10), sequence (P49770 whole entry): as the sequence (P49770 whole entry N132D) above, with D132N counted along it
eIF2B(βγδε)2 octamer (Homo sapiens, UniProt P49770+Q9UI10), sequence (Q9UI10 whole entry): as the sequence (Q9UI10 whole entry) above
eIF2B(βγδε)2 octamer (Homo sapiens, UniProt P49770+Q9UI10), sequence (Q9NR50 whole entry partner): as the sequence (Q9NR50 whole entry partner) above
eIF2B(βγδε)2 octamer (Homo sapiens, UniProt P49770+Q9UI10), sequence (Q13144 2-721 partner): as the sequence (Q13144 2-721 partner) above

For `O=C(COc1ccc(Cl)cc1)N[C@H]1CC[C@H](NC(=O)COc2ccc(Cl)cc2)CC1` [ISRIB], the “GEF activity, loading of fluorescent GDP onto eIF2” value on eIF2B(βγδε)2 octamer [1] was “GEF activity of the ISRIB-stabilized eIF2B octamer”; at eIF2B(βγδε)2 octamer [2], “eIF2B-βN132D tetramers and ISRIB-stabilized octamers”.
